Measurements as given in patent US6737383B1, “Herbicidal oxadiazolidines” (priority 1999, dated 2004).

How the values were obtained:
[1] = system: bedstraw; test: Test B pre/postemergence bedstraw; format: in vivo, Galium aparine
Procedure, shortened: (§1)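 Response is a visual 0-to-10 score relative to untreated plants, where 0 means no effect and 10 means complete control, taken twelve to sixteen days after application. Treatments went onto soil at planting and onto foliage of 1- to 4-leaf plants, using a surfactant-containing non-phytotoxic solvent.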

[2] = system: blackgrass; test: Test B pre/postemergence blackgrass; format: in vivo, Alopecurus myosuroides
Procedure, shortened: as §1

[3] = system: surinam grass; test: Test B pre/postemergence surinam grass; format: in vivo, Brachiaria decumbens
Procedure, shortened: as §1

[4] = system: cocklebur; test: Test B pre/postemergence cocklebur; format: in vivo, Xanthium strumarium
Procedure, shortened: as §1

[5] = system: corn; test: Test B pre/postemergence corn; format: in vivo, Zea mays
Procedure, shortened: as §1

[6] = system: crabgrass; test: Test B pre/postemergence crabgrass; format: in vivo, Digitaria sanguinalis
Procedure, shortened: as §1

[7] = system: giant foxtail; test: Test B pre/postemergence giant foxtail; format: in vivo, Setaria faberii
Procedure, shortened: as §1

[8] = system: morningglory; test: Test B pre/postemergence morningglory; format: in vivo, Ipomoea hederacea
Procedure, shortened: as §1

[9] = system: pigweed; test: Test B pre/postemergence pigweed; format: in vivo, Amaranthus retroflexus
Procedure, shortened: as §1

[10] = system: rape; test: Test B pre/postemergence rape; format: in vivo, Brassica napus
Procedure, shortened: as §1

[11] = system: soybean; test: Test B pre/postemergence soybean; format: in vivo, Glycine max
Procedure, shortened: as §1

[12] = system: sugar beet; test: Test B pre/postemergence sugar beet; format: in vivo, Beta vulgaris
Procedure, shortened: as §1

[13] = system: velvetleaf; test: Test B pre/postemergence velvetleaf; format: in vivo, Abutilon theophrasti
Procedure, shortened: as §1

[14] = system: wheat; test: Test B pre/postemergence wheat; format: in vivo, Triticum aestivum
Procedure, shortened: as §1

[15] = system: wild oat; test: Test B pre/postemergence wild oat; format: in vivo, Avena fatua
Procedure, shortened: as §1

[16] = system: purple nutsedge; test: Test B pre/postemergence purple nutsedge; format: in vivo, Cyperus rotundus
Procedure, shortened: as §1

[17] = Postemergence, Rate 62 g/ha, scale 0 to 10, 0 is no effect, 10 is complete control
[18] = Postemergence, Rate 125 g/ha, scale of 0 to 10 where 0 is no effect and 10 is complete control
[19] = Postemergence, Rate 250 g/ha, scale of 0 to 10, 0 is no effect, 10 is complete control
[20] = Preemergence, Rate 62 g/ha, scale of 0 to 10 where 0 is no effect and 10 is complete control
[21] = Preemergence, Rate 125 g/ha, scale of 0 to 10 where 0 is no effect and 10 is complete control
[22] = Preemergence, Rate 250 g/ha, scale 0 to 10 (0 no effect, 10 complete control)
[23] = Preemergence, Rate 500 g/ha, scale of 0 to 10 where 0 is no effect and 10 is complete control
[24] = Postemergence, Rate 500 g/ha, scale of 0 to 10 where 0 is no effect and 10 is complete control

## CCCCn1c(=O)on(C(=O)N(c2ccc(F)cc2F)C(C)C)c1=O [Compound 635]
[1]; [17]
  Plant response rating, Bedstraw: 5
[1]; [18]
  Plant response rating, Bedstraw: 7
[1]; [19]
  Bedstraw plant response rating: 9
[1]; [20]
  Bedstraw plant response rating: 9
[1]; [21]
  Bedstraw plant response rating: 8
[1]; [22]
  Plant response rating, Bedstraw: 7
[1]; [23]
  Plant response rating, Bedstraw: 9
[2]; [17]
  Plant response rating, Blackgrass: 2
[2]; [18]
  Plant response rating, Blackgrass: 3
[2]; [19]
  Blackgrass plant response rating: 7
[2]; [20]
  Blackgrass plant response rating: 9
[2]; [22]
  Plant response rating, Blackgrass: 9
[2]; [23]
  Plant response rating, Blackgrass: 8
[3]; [17]
  Plant response rating, B. signalgrass: 0
[3]; [18]
  Plant response rating, B. signalgrass: 0
[3]; [19]
  B. signalgrass plant response rating: 2
[3]; [24]
  Plant response rating, B. signalgrass: 8
[3]; [20]
  B. signalgrass plant response rating: 4
[3]; [21]
  B. signalgrass plant response rating: 8
[3]; [22]
  Plant response rating, B. signalgrass: 9
[3]; [23]
  Plant response rating, B. signalgrass: 9
[4]; [17]
  Plant response rating, Cocklebur: 2
[4]; [18]
  Plant response rating, Cocklebur: 2
[4]; [19]
  Cocklebur plant response rating: 3
[4]; [24]
  Plant response rating, Cocklebur: 3
[4]; [20]
  Cocklebur plant response rating: 0
[4]; [21]
  Cocklebur plant response rating: 0
[4]; [22]
  Plant response rating, Cocklebur: 0
[4]; [23]
  Plant response rating, Cocklebur: 0
[5]; [17]
  Plant response rating, Corn: 0
[5]; [18]
  Plant response rating, Corn: 0
[5]; [19]
  Corn plant response rating: 0
[5]; [24]
  Plant response rating, Corn: 2
[5]; [20]
  Corn plant response rating: 0
[5]; [22]
  Plant response rating, Corn: 2
[5]; [23]
  Plant response rating, Corn: 8
[6]; [17]
  Plant response rating, Crabgrass: 4
[6]; [18]
  Plant response rating, Crabgrass: 9
[6]; [19]
  Crabgrass plant response rating: 8
[6]; [24]
  Plant response rating, Crabgrass: 9
[6]; [20]
  Crabgrass plant response rating: 9
[6]; [21]
  Crabgrass plant response rating: 9
[6]; [22]
  Plant response rating, Crabgrass: 9
[6]; [23]
  Plant response rating, Crabgrass: 9
[7]; [17]
  Plant response rating, Giant foxtail: 5
[7]; [18]
  Plant response rating, Giant foxtail: 8
[7]; [19]
  Giant foxtail plant response rating: 8
[7]; [24]
  Plant response rating, Giant foxtail: 9
[7]; [20]
  Giant foxtail plant response rating: 9
[7]; [21]
  Giant foxtail plant response rating: 9
[7]; [22]
  Plant response rating, Giant foxtail: 10
[7]; [23]
  Plant response rating, Giant foxtail: 10
[8]; [17]
  Plant response rating, Morningglory: 1
[8]; [18]
  Plant response rating, Morningglory: 4
[8]; [19]
  Morningglory plant response rating: 4
[8]; [24]
  Plant response rating, Morningglory: 7
[8]; [20]
  Morningglory plant response rating: 0
[8]; [21]
  Morningglory plant response rating: 0
[8]; [22]
  Plant response rating, Morningglory: 0
[8]; [23]
  Plant response rating, Morningglory: 6
[9]; [17]
  Plant response rating, Redroot pigweed: 0
[9]; [18]
  Plant response rating, Redroot pigweed: 0
[9]; [19]
  Redroot pigweed plant response rating: 3
[9]; [20]
  Redroot pigweed plant response rating: 10
[9]; [21]
  Redroot pigweed plant response rating: 10
[9]; [22]
  Plant response rating, Redroot pigweed: 10
[9]; [23]
  Plant response rating, Redroot pigweed: 10
[10]; [17]
  Plant response rating, Rape: 2
[10]; [18]
  Plant response rating, Rape: 5
[10]; [19]
  Rape plant response rating: 7
[10]; [24]
  Plant response rating, Rape: 9
[10]; [20]
  Rape plant response rating: 6
[10]; [21]
  Rape plant response rating: 6
[10]; [22]
  Plant response rating, Rape: 7
[10]; [23]
  Plant response rating, Rape: 9
[11]; [17]
  Plant response rating, Soybean: 3
[11]; [18]
  Plant response rating, Soybean: 4
[11]; [19]
  Soybean plant response rating: 4
[11]; [20]
  Soybean plant response rating: 0
[11]; [21]
  Soybean plant response rating: 0
[11]; [22]
  Plant response rating, Soybean: 0
[11]; [23]
  Plant response rating, Soybean: 2
[12]; [17]
  Plant response rating, Sugarbeets: 3
[12]; [18]
  Plant response rating, Sugarbeets: 3
[12]; [19]
  Sugarbeets plant response rating: 7
[12]; [20]
  Sugarbeets plant response rating: 3
[12]; [21]
  Sugarbeets plant response rating: 5
[12]; [22]
  Plant response rating, Sugarbeets: 8
[12]; [23]
  Plant response rating, Sugarbeets: 9
[13]; [17]
  Plant response rating, Velvetleaf: 0
[13]; [18]
  Plant response rating, Velvetleaf: 0
[13]; [19]
  Velvetleaf plant response rating: 2
[13]; [20]
  Velvetleaf plant response rating: 0
[13]; [22]
  Plant response rating, Velvetleaf: 3
[13]; [23]
  Plant response rating, Velvetleaf: 7
[14]; [17]
  Plant response rating, Wheat: 0
[14]; [18]
  Plant response rating, Wheat: 0
[14]; [19]
  Wheat plant response rating: 2
[14]; [20]
  Wheat plant response rating: 0
[14]; [21]
  Wheat plant response rating: 0
[14]; [22]
  Plant response rating, Wheat: 3
[14]; [23]
  Plant response rating, Wheat: 4
[15]; [17]
  Plant response rating, Wild oats: 0
[15]; [18]
  Plant response rating, Wild oats: 0
[15]; [19]
  Wild oats plant response rating: 5
[15]; [20]
  Wild oats plant response rating: 2
[15]; [21]
  Wild oats plant response rating: 6
[15]; [22]
  Plant response rating, Wild oats: 9
[15]; [23]
  Plant response rating, Wild oats: 9
[16]; [17]
  Plant response rating, Nutsedge: 0
[16]; [18]
  Plant response rating, Nutsedge: 0
[16]; [20]
  Nutsedge plant response rating: 0
[16]; [21]
  Nutsedge plant response rating: 0
[16]; [22]
  Plant response rating, Nutsedge: 3
[16]; [23]
  Plant response rating, Nutsedge: 4
